Laboratory results: patent US11298333B1, “Methods of reducing the risk of cardiovascular events in a subject” (Amarin Pharmaceuticals Ireland Limited, priority 2018, dated 2022)

Tested on: hypertriglyceridemic patients with cardiovascular disease or at high risk for cardiovascular disease
Assay: REDUCE-IT: safety, treatment-emergent adverse events (incl. bleeding and gastrointestinal TEAEs)
[1] = gastrointestinal TEAE, Safety population N = 4089
[2] = gastrointestinal TEAE, number of patients, Safety population N = 4089
[3] = most frequent TEAEs (≥5%), N = 4089
[4] = no significant increase vs placebo
[5] = serious bleeding TEAE by preferred term, N = 4089
[6] = serious bleeding TEAE by preferred term, number of patients, N = 4089
[7] = serious bleeding TEAE, N = 4089
[8] = serious bleeding TEAE, number of patients, N = 4089
[9] = significantly higher than placebo

Protocol: Specification of Variables and Procedures: Safety assessments included adverse events, clinical laboratory measurements (chemistry, hematology), 12-lead ECGs, vital signs (systolic and diastolic blood pressure, heart rate, respiratory rate, and body temperature), weight, waist circumference, and physical examinations as per Study Procedures in Table 1. […] All laboratory test results were evaluated by the investigator as to their clinical significance. Any observations at physical examinations or laboratory values considered by the investigator to be clinically significant were considered an adverse event.
An adverse event can therefore be any unfavorable and/or unintended sign (including an abnormal laboratory finding), symptom, or disease temporally associated with the use of an investigational medication product, whether or not related to the investigational medication product. All adverse events, including observed or volunteered problems, complaints, or symptoms, were recorded on the appropriate CRF. Each adverse event was evaluated for duration, intensity, and causal relationship with the study medication or other factors.
Serious Adverse Events: A serious adverse event (SAE) is defined as an adverse event that meets any of the following criteria: • Results in death; • Is life-threatening—The term “life-threatening” in the definition of “serious” refers to an event in which the patient was at risk of death at the time of the event. […] Important medical events that may not result in death, be life threatening, or require hospitalization were considered an SAE when, based upon appropriate medical judgment, they may have jeopardized the patient and may have required medical or surgical intervention to prevent one of the outcomes listed above.
Adverse Events of Special Interest: Bleeding-related adverse events, glucose control (fasting blood glucose and HbA1c), and indicators of hepatic disorders (e.g., ALT or AST increases >3×ULN, total bilirubin increases of ≥2×ULN) were summarized separately and compared between treatment groups.
Analysis of Safety: All analyses of safety were conducted on the safety population, which was defined as all randomized patients. The safety assessment was based on the frequency of adverse events, physical exams, vital signs and safety laboratory tests. AEs with new onset during the study between the initiation of study drug and 30 days after the last dose of study drug for each patient was considered treatment-emergent (TEAEs). This included any AE with onset prior to initiation of study drug and increased severity after the treatment initiation.
This included overall incidence rates (regardless of severity and relationship to study drug), and incidence rates for moderate or severe adverse events. A summary of SAEs and adverse events leading to early discontinuation (for ≥30 days) were presented through data listings. Patients who restarted study drug were included in the summary of AEs leading to discontinuation. Safety laboratory tests and vital signs were summarized by post-treatment change from baseline for each of the parameters using descriptive statistics by treatment group. Those patients with significant laboratory abnormalities were identified in data listings. Additional safety parameters were summarized in data listings.

SMILES: CC/C=C\C/C=C\C/C=C\C/C=C\C/C=C\CCCC(=O)OCC [Icosapent Ethyl, eicosapentaenoic acid ethyl ester]
- Overall adverse event rates compared with placebo (4 grams daily): similar
- Positively Adjudicated Atrial Fibrillation/Flutter (hospitalization) (N = 4089): 127 (3.1%) n (%)
- Serious TEAE (≥2%) Pneumonia (N = 4089): 105 (2.6%) n (%)
- Serious TEAE (Safety population N = 4089): 1252 (30.6%) n (%)
- Serious TEAE Leading to Death (Safety population N = 4089): 94 (2.3%) n (%)
- Serious TEAE Leading to Withdrawal of Study Drug (Safety population N = 4089): 88 (2.2%) n (%)
- Serious bleeding TEAE: Bleeding related disorders (Safety population N = 4089): 111 (2.7%) n (%)
- Serious bleeding TEAE: Central nervous system bleeding (Safety population N = 4089): 14 (0.3%) n (%)
- Serious bleeding TEAE: Gastrointestinal bleeding (Safety population N = 4089): 62 (1.5%) n (%)
- Serious bleeding TEAE: Other bleeding (Safety population N = 4089): 41 (1.0%) n (%)
- Subjects with at Least One TEAE (Safety population N = 4089): 3343 (81.8%) n (%)
- TEAE Leading to Withdrawal of Study Drug (Safety population N = 4089): 321 (7.9%) n (%)
- Constipation (TEAE), percentage of patients [1]: (5.4%)
- Diarrhea (TEAE), percentage of patients [1]: (9.0%)
- Gastroesophageal Reflux Disease (TEAE), percentage of patients [1]: (3.0%)
- Gastrointestinal disorders (TEAE), percentage of patients [1]: (33.0%)
- Nausea (TEAE), percentage of patients [1]: (4.6%)
- Constipation (TEAE), patients [2]: 221
- Diarrhea (TEAE), patients [2]: 367
- Gastroesophageal Reflux Disease (TEAE), patients [2]: 124
- Gastrointestinal disorders (TEAE), patients [2]: 1350
- Nausea (TEAE), patients [2]: 190
- Treatment-emergent serious adverse events for bleeding, rate (in vivo): 2.7%
- Rate of anemia (adverse event) (lower than placebo): 4.7%
- Rate of diarrhea (adverse event) (lower than placebo): 9%
- Rate of gastrointestinal adverse events (lower than placebo): 33.0%
- TEAE Anemia [3]: 191 (4.7%) n (%)
- TEAE Angina pectoris [3]: 200 (4.9%) n (%)
- TEAE Arthralgia [3]: 313 (7.7%) n (%)
- TEAE Atrial fibrillation [3]: 215 (5.3%) n (%)
- TEAE Back pain [3]: 335 (8.2%) n (%)
- TEAE Bronchitis [3]: 306 (7.5%) n (%)
- TEAE Cataract [3]: 233 (5.7%) n (%)
- TEAE Chest pain [3]: 273 (6.7%) n (%)
- TEAE Constipation [3]: 221 (5.4%) n (%)
- TEAE Cough [3]: 241 (5.9%) n (%)
- TEAE Diarrhea [3]: 367 (9.0%) n (%)
- TEAE Dizziness [3]: 235 (5.7%) n (%)
- TEAE Dyspnea [3]: 254 (6.2%) n (%)
- TEAE Fatigue [3]: 228 (5.6%) n (%)
- TEAE Hypertension [3]: 320 (7.8%) n (%)
- TEAE Influenza [3]: 263 (6.4%) n (%)
- TEAE Nasopharyngitis [3]: 314 (7.7%) n (%)
- TEAE Osteoarthritis [3]: 241 (5.9%) n (%)
- TEAE Pain in extremity [3]: 235 (5.7%) n (%)
- TEAE Peripheral edema [3]: 267 (6.5%) n (%)
- TEAE Pneumonia [3]: 263 (6.4%) n (%)
- Tolerability (no significant difference in rates of serious adverse events versus placebo): well tolerated
- Serious central nervous system bleeding, rate [4]: 0.3%
- Serious gastrointestinal bleeding, rate [4]: 1.5%
- Serious adverse event pneumonia, rate (only serious adverse event at frequency ≥2%): 2.6%
- Aortic Aneurysm Rupture, percentage [5]: (0.0%)
- Brain Contusion, percentage [5]: (0.0%)
- Catheter Site Hemorrhage, percentage [5]: (0.0%)
- Cerebral Hemorrhage, percentage [5]: (0.0%)
- Cystitis Hemorrhagic, percentage [5]: (0.0%)
- Diverticulitis Intestinal Hemorrhagic, percentage [5]: (0.0%)
- Diverticulum Intestinal Hemorrhagic, percentage [5]: (0.1%)
- Duodenal Ulcer Hemorrhage, percentage [5]: (0.0%)
- Ecchymosis, percentage [5]: (0.0%)
- Epistaxis, percentage [5]: (0.2%)
- Esophageal Hemorrhage, percentage [5]: (0.0%)
- Extravasation Blood, percentage [5]: (0.0%)
- Gastric Hemorrhage, percentage [5]: (0.0%)
- Gastric Ulcer Hemorrhage, percentage [5]: (0.1%)
- Gastrointestinal Angiodysplasia Hemorrhagic, percentage [5]: (0.0%)
- Gastrointestinal Hemorrhage, percentage [5]: (0.6%)
- Genital Hemorrhage, percentage [5]: (0.0%)
- Hemarthrosis, percentage [5]: (0.0%)
- Hematemesis, percentage [5]: (0.1%)
- Hematochezia, percentage [5]: (0.0%)
- Hematoma, percentage [5]: (0.0%)
- Hematuria, percentage [5]: (0.2%)
- Hemoptysis, percentage [5]: (0.0%)
- Hemorrhagic Anemia, percentage [5]: (0.1%)
- Hemorrhagic Duodenitis, percentage [5]: (0.0%)
- Hemorrhagic Transformation Stroke, percentage [5]: (0.0%)
- Hemorrhoidal Hemorrhage, percentage [5]: (0.1%)
- Hemothorax, percentage [5]: (0.0%)
- Immune Thrombocytopenic Purpura, percentage [5]: (0.0%)
- Intra-Abdominal Hemorrhage, percentage [5]: (0.0%)
- Intracranial Hemorrhage, percentage [5]: (0.0%)
- Large Intestinal Hemorrhage, percentage [5]: (0.0%)
- Lower Gastrointestinal Hemorrhage, percentage [5]: (0.1%)
- Mallory-Weiss Syndrome, percentage [5]: (0.0%)
- Melaena, percentage [5]: (0.1%)
- Menorrhagia, percentage [5]: (0.0%)
- Mouth Hemorrhage, percentage [5]: (0.0%)
- Pancreatitis Hemorrhagic, percentage [5]: (0.0%)
- Peptic Ulcer Hemorrhage, percentage [5]: (0.0%)
- Pericardial Hemorrhage, percentage [5]: (0.0%)
- Post Procedural Hematoma, percentage [5]: (0.0%)
- Post Procedural Hematuria, percentage [5]: (0.0%)
- Post Procedural Hemorrhage, percentage [5]: (0.1%)
- Rectal Hemorrhage, percentage [5]: (0.2%)
- Renal Hemorrhage, percentage [5]: (0.0%)
- Retinal Hemorrhage, percentage [5]: (0.0%)
- Retroperitoneal Hematoma, percentage [5]: (0.0%)
- Retroperitoneal Hemorrhage, percentage [5]: (0.0%)
- Shock Hemorrhagic, percentage [5]: (0.0%)
- Subarachnoid Hemorrhage, percentage [5]: (0.0%)
- Subdural Hematoma, percentage [5]: (0.2%)
- Subdural Hemorrhage, percentage [5]: (0.0%)
- Traumatic Hematoma, percentage [5]: (0.0%)
- Traumatic Intracranial Hemorrhage, percentage [5]: (0.0%)
- Ulcer Hemorrhage, percentage [5]: (0.0%)
- Upper Gastrointestinal Hemorrhage, percentage [5]: (0.1%)
- Urinary Bladder Hemorrhage, percentage [5]: (0.0%)
- Aortic Aneurysm Rupture, patients [6]: 1
- Brain Contusion, patients [6]: 0
- Catheter Site Hemorrhage, patients [6]: 0
- Cerebral Hemorrhage, patients [6]: 0
- Cystitis Hemorrhagic, patients [6]: 2
- Diverticulitis Intestinal Hemorrhagic, patients [6]: 0
- Diverticulum Intestinal Hemorrhagic, patients [6]: 3
- Duodenal Ulcer Hemorrhage, patients [6]: 2
- Ecchymosis, patients [6]: 1
- Epistaxis, patients [6]: 7
- Esophageal Hemorrhage, patients [6]: 0
- Extravasation Blood, patients [6]: 1
- Gastric Hemorrhage, patients [6]: 1
- Gastric Ulcer Hemorrhage, patients [6]: 3
- Gastrointestinal Angiodysplasia Hemorrhagic, patients [6]: 1
- Gastrointestinal Hemorrhage, patients [6]: 26
- Genital Hemorrhage, patients [6]: 1
- Hemarthrosis, patients [6]: 0
- Hematemesis, patients [6]: 3
- Hematochezia, patients [6]: 1
- Hematoma, patients [6]: 1
- Hematuria, patients [6]: 8
- Hemoptysis, patients [6]: 1
- Hemorrhagic Anemia, patients [6]: 4
- Hemorrhagic Duodenitis, patients [6]: 0
- Hemorrhagic Transformation Stroke, patients [6]: 1
- Hemorrhoidal Hemorrhage, patients [6]: 3
- Hemothorax, patients [6]: 1
- Immune Thrombocytopenic Purpura, patients [6]: 0
- Intra-Abdominal Hemorrhage, patients [6]: 1
- Intracranial Hemorrhage, patients [6]: 0
- Large Intestinal Hemorrhage, patients [6]: 1
- Lower Gastrointestinal Hemorrhage, patients [6]: 5
- Mallory-Weiss Syndrome, patients [6]: 1
- Melaena, patients [6]: 3
- Menorrhagia, patients [6]: 1
- Mouth Hemorrhage, patients [6]: 0
- Pancreatitis Hemorrhagic, patients [6]: 1
- Peptic Ulcer Hemorrhage, patients [6]: 1
- Pericardial Hemorrhage, patients [6]: 0
- Post Procedural Hematoma, patients [6]: 1
- Post Procedural Hematuria, patients [6]: 0
- Post Procedural Hemorrhage, patients [6]: 5
- Rectal Hemorrhage, patients [6]: 10
- Renal Hemorrhage, patients [6]: 0
- Retinal Hemorrhage, patients [6]: 1
- Retroperitoneal Hematoma, patients [6]: 0
- Retroperitoneal Hemorrhage, patients [6]: 1
- Shock Hemorrhagic, patients [6]: 2
- Subarachnoid Hemorrhage, patients [6]: 2
- Subdural Hematoma, patients [6]: 9
- Subdural Hemorrhage, patients [6]: 2
- Traumatic Hematoma, patients [6]: 2
- Traumatic Intracranial Hemorrhage, patients [6]: 0
- Ulcer Hemorrhage, patients [6]: 1
- Upper Gastrointestinal Hemorrhage, patients [6]: 3
- Urinary Bladder Hemorrhage, patients [6]: 1
- Central Nervous System Bleeding (category), percentage [7]: (0.3%)
- Gastrointestinal Bleeding (category), percentage [7]: (1.5%)
- Other Bleeding (category), percentage [7]: (1.0%)
- Patients with Bleeding-Related Disorders, percentage [7]: (2.7%)
- Central Nervous System Bleeding (category), patients [8]: 14
- Gastrointestinal Bleeding (category), patients [8]: 62
- Other Bleeding (category), patients [8]: 41
- Patients with Bleeding-Related Disorders, patients [8]: 111
- Rate of atrial fibrillation (adverse event) [9]: 5.3%
- Rate of peripheral edema (adverse event) [9]: 6.5%
